# Experimental data: patent publication US6369104B1, “Biocidal compositions and use thereof containing a synergistic mixture of glutaraldehyde and 2,2-dibromo-3 nitrilo propionamide” (Hercules Incorporated, priority 2000, dated 2002)
# Test system: Klebsiella pneumoniae
# Assay: Checkerboard growth inhibition (turbidity at 590 nm) with Kull synergism index
# Assay type: cell-based
# Protocol: Glutaraldehyde and DBNPA were added in varying ratios over a wide range of concentrations to a liquid nutrient medium which was subsequently inoculated with a standard volume of a suspension of the facultative bacterium Klebsiella pneumoniae. Growth was measured by turbidity at 590 nm in a microplate spectrophotometer. The effect of the biocide chemicals, alone and in combination, is to reduce the growth (turbidity) of the bacterial cells as compared to controls not treated with the chemicals. Additions of the biocides, alone and in varying combinations and concentrations, were made according to the accepted “checkerboard” technique described by M. T. Kelly and J. Matsen, Antimicrobial Agents and Chemotherapy. 9:440 (1976). Growth was measured after overnight incubation at 30° C. Each unique sample concentration was tested in triplicate. The percent reduction of each treated sample was calculated from the relationship: [formula]
# Plotting the % reduction of turbidity against the concentration of each biocide acting alone results in a dose-response curve, from which the biocide dose necessary to achieve a given % reduction can be interpolated.
# Synergism was determined by the method of calculation described by F. C. Kull, P. C. Eisman, H. D. Sylwestrowicz and R. L. Mayer, Applied Microbiology, 9:538 (1961) using the relationship:
# (QA/Qa)+(QB/Qb)=Synergism Index (SI)
# Qa=quantity of compound A, acting alone, producing an end point
# Qb=quantity of compound B, acting alone, producing an end point
# QA=quantity of compound A, in mixture, producing an end point
# QB=quantity of compound B, in mixture, producing an end point
# The end point used in the calculations is the % reduction caused by each mixture of A and B. QA and QB are the individual concentrations in the A/B mixture causing a given % reduction. QA and QB are determined by interpolation from the respective dose-response curves of A and B as those concentrations of A and B acting alone which produce the same % reduction as each specific mixture produced.
# Dose-response curves for each active acting alone were determined by linear regression analysis of dose-response data. Data were fitted to a curve represented by the equation shown with each data set. After linearizing the data, the contributions of each biocide component in the biocide mixtures to the inhibition of turbidity were determined by a linear regression method with the dose-response curve of the respective biocide. If, for example, quantities of QA and QB are sufficient to give a 50% reduction in turbidity, Qa and Qb are those quantities of A and B acting alone respectively, found to give 50% reduction in turbidity. A synergism index (SI) is calculated for each combination of A and B.
# Where the SI is less than 1, synergism exists. Where the SI=1, additivity exists. Where SI is greater than 1, antagonism exists.
# The data in the following tables come from treating Klebsiella pneumoniae, a common nuisance bacterial type found in industrial cooling waters and in pulping and paper making systems, with varying ratios and concentrations of glutaraldehyde and DBNPA. Shown for each combination is the % reduction of turbidity (%I), the calculated SI, and the weight ratio of glutaraldehyde and DBNPA.
compound,measurement,setting,value
"O=CCCCC=O [Glutaraldehyde, glutaraldehyde]",% I (% reduction of turbidity),"Table I, Glutaraldehyde 9.4 ppm alone",0%
same,% I (% reduction of turbidity),"Table I, Glutaraldehyde 18.8 ppm alone",0%
same,% I (% reduction of turbidity),"Table I, Glutaraldehyde 37.5 ppm alone",6%
same,% I (% reduction of turbidity),"Table I, Glutaraldehyde 75 ppm alone",22%
same,% I (% reduction of turbidity),"Table I, Glutaraldehyde 150 ppm alone",53%
same,% I (% reduction of turbidity),"Table I, Glutaraldehyde 300 ppm alone",100%
same,% I (% reduction of turbidity),"Table II, Glutaraldehyde 9.4 ppm alone",2%
same,% I (% reduction of turbidity),"Table II, Glutaraldehyde 18.8 ppm alone",6%
same,% I (% reduction of turbidity),"Table II, Glutaraldehyde 37.5 ppm alone",13%
same,% I (% reduction of turbidity),"Table II, Glutaraldehyde 75 ppm alone",28%
same,% I (% reduction of turbidity),"Table II, Glutaraldehyde 150 ppm alone",58%
same,% I (% reduction of turbidity),"Table II, Glutaraldehyde 300 ppm alone",100%
"N#CC(Br)(Br)C(N)=O [DBNPA, 2,2-dibromo-3-nitrilopropionamide]",% I (% reduction of turbidity),"Table I, DBNPA 3.2 ppm alone",60%
same,% I (% reduction of turbidity),"Table I, DBNPA 6.3 ppm alone",62%
same,% I (% reduction of turbidity),"Table I, DBNPA 12.5 ppm alone",65%
same,% I (% reduction of turbidity),"Table I, DBNPA 25 ppm alone",72%
same,% I (% reduction of turbidity),"Table I, DBNPA 50 ppm alone",86%
same,% I (% reduction of turbidity),"Table I, DBNPA 100 ppm alone",100%
same,% I (% reduction of turbidity),"Table II, DBNPA 3.2 ppm alone",84%
same,% I (% reduction of turbidity),"Table II, DBNPA 6.3 ppm alone",85%
same,% I (% reduction of turbidity),"Table II, DBNPA 12.5 ppm alone",87%
same,% I (% reduction of turbidity),"Table II, DBNPA 25 ppm alone",89%
same,% I (% reduction of turbidity),"Table II, DBNPA 50 ppm alone",95%
same,% I (% reduction of turbidity),"Table II, DBNPA 100 ppm alone",100%
